Data reported in patent US8163509B2, “Biological markers predictive of anti-cancer response to insulin-like growth factor-1 receptor kinase inhibitors” (The Regents of the University of Colorado, A Body Corporate, priority 2008, dated 2012).
Where two headings read alike, the source gives them in different places. Values belong to the compound of their own block, whether it stands above or below them.

Tests used:
Experiment in all cases: SRB proliferation assay, 72 h
Format in all cases: cell-based
CaCo2 CRC cell line = details: Homo sapiens
Method: (§1) FIG. 17: Results of cell proliferation assay on the panel of 27 CRC cell lines. Cell proliferation was evaluated by SRB following exposure to OSI-906 for 72 hours. Cells were plated at an optimized density in 96-well plates, incubated overnight at 37° C., and then exposed to a serial dilution of OSI-906. After 72 hours incubation, cells were fixed with trichloroacetic acid and an SRB was performed as described in materials and methods.
(§2) Cell Lines and Culture. […] human colon cancer cell lines, were obtained from American Type Culture Collection (Manassas, Va.). Cells were grown in RPMI medium supplemented with 10% fetal bovine serum, 1% non-essential amino acids, 1% penicillin/streptomycin and were maintained at 37° C. in an incubator under an atmosphere containing 5% CO2. The cells were routinely screened for the presence of mycoplasma (MycoAlert, Cambrex Bio Science, Baltimore, Md.) and were exposed to PQIP when they reached approximately 70% confluence.
(§3) The CRC cell lines were treated with a range of concentrations of PQIP (from 0.05-5 μM) for 72 hours.
(§4) Cell Lines and Culture: Twenty-seven human colon cancer cell lines, were obtained from American Type Culture Collection (Manassas, Va.). The GEO cells were a generous gift from Dr. Fortunato Ciardiello (Cattedra di Oncologia Medica, Dipartimento Medico-Chirurgico di Internistica Clinica e Sperimentale “F Magrassi e A Lanzara,” Seconda Università degli Studi di Napoli, Naples). All cells except GEO were grown in RPMI medium supplemented with 10% fetal bovine serum, 1% non-essential amino acids, 1% penicillin/streptomycin and were maintained at 37° C. in an incubator under an atmosphere containing 5% CO2. GEO cells were grown in DMEM/F12 supplemented with 10% fetal bovine serum, 1% non-essential amino acids, 1% penicillin/streptomycin. The cells were routinely screened for the presence of mycoplasma (MycoAlert, Cambrex Bio Science, Baltimore, Md.) and were exposed to OSI-906 when they reached approximately 70% confluence. OSI-906 was provided by OSI Pharmaceuticals, (Boulder, Colo.) and prepared as a 10 mM stock solution in DMSO.
(§5) Assessment of responsiveness of a panel of CRC cell lines to OSI-906. In order to assess CRC cell lines with differential sensitivity to OSI-906, a panel of 27 CRC cell lines were exposed to increasing concentrations of OSI-906 and proliferation was measured using the SRB assay as described previously (Pitts, T M, et al. Mol Cancer Ther 2009; 8(2):342-9). As depicted in FIG. 17 there was a wide range of sensitivity of the CRC cell lines to OSI-906, the majority of the cell lines failing to reach an IC50 up to 5 μmol/L, but a clear distinction could be made between the cell lines that were sensitive and the cell lines that were resistant.

SW1417 CRC cell line = details: Homo sapiens
Method: as §1, §2, §3, §4, §5

SW48 CRC cell line = details: Homo sapiens
Method: as §1, §2, §3, §4, §5

NCI-H508 CRC cell line = details: Homo sapiens
Method: as §1, §2, §3, §4, §5

LS123 CRC cell line = details: Homo sapiens
Method: as §1, §2, §3, §4, §5

T84 CRC cell line = details: Homo sapiens
Method: as §1, §2, §3, §4, §5

LoVo CRC cell line = details: Homo sapiens
Method: as §1, §2, §3, §4, §5

SW1116 CRC cell line = details: Homo sapiens
Method: as §1, §2, §3, §4, §5

Colo205 CRC cell line = details: Homo sapiens, COLO 205
Method: as §1, §2, §3, §4, §5

LS1034 CRC cell line = details: Homo sapiens
Method: as §1, §2, §3, §4, §5

LS180 CRC cell line = details: Homo sapiens
Method: as §1, §2, §3, §4, §5

[1] = 72 hours, read-out: IC50, proliferation, OSI-906 (SRB)
[2] = 72 hours, 0.05-5 μM, read-out: IC50, growth inhibition by PQIP (SRB)

IC50 (CaCo2 CRC cell line; Caco-2, 72 hours, read-out: IC50, proliferation, OSI-906 (SRB)): ≤ 1500 nM
IC50 (CaCo2 CRC cell line; Caco-2, read-out: S/I/R to OSI-906): ≤ 1500 nM
IC50 (SW1417 CRC cell line; [1]): > 5 µM
IC50 (SW1417 CRC cell line; read-out: S/I/R to OSI-906): > 5 µM
IC50 (SW48 CRC cell line; [1]): > 5 µM
IC50 (SW48 CRC cell line; read-out: S/I/R to OSI-906): > 5 µM
IC50 (NCI-H508 CRC cell line; [1]): > 5 µM
IC50 (NCI-H508 CRC cell line; read-out: S/I/R to OSI-906): > 5 µM
IC50 (LoVo CRC cell line; [1]): > 5 µM
IC50 (LoVo CRC cell line; read-out: S/I/R to OSI-906): > 5 µM
IC50 (SW1116 CRC cell line; SW 1116, 72 hours, read-out: IC50, proliferation, OSI-906 (SRB)): > 5 µM
IC50 (SW1116 CRC cell line; SW 1116, read-out: S/I/R to OSI-906): > 5 µM
IC50 (Colo205 CRC cell line; CoLo205, read-out: S/I/R to OSI-906): ≤ 1500 nM
IC50 (Colo205 CRC cell line; Colo205, 72 hours, read-out: IC50, proliferation, OSI-906 (SRB)): ≤ 1500 nM
SMILES: C[C@]1(O)C[C@@H](c2nc(-c3ccc4ccc(-c5ccccc5)nc4c3)c3c(N)nccn32)C1 [OSI-906, cis-3-[8-amino-1-(2-phenyl-quinolin-7-yl)-imidazo[1,5-a]pyrazin-3-yl]-1-methyl-cyclobutanol]
IC50 (LS123 CRC cell line; LS-123, 72 hours, read-out: IC50, proliferation, OSI-906 (SRB)): > 5 µM
IC50 (LS123 CRC cell line; LS-123, read-out: S/I/R to OSI-906): > 5 µM
IC50 (T84 CRC cell line; [1]): > 5 µM
IC50 (T84 CRC cell line; T-84, read-out: S/I/R to OSI-906): > 5 µM
IC50 (LS1034 CRC cell line; LS-1034, 72 hours, read-out: IC50, proliferation, OSI-906 (SRB)): ≤ 1500 nM
IC50 (LS1034 CRC cell line; LS-1034, read-out: S/I/R to OSI-906): ≤ 1500 nM
IC50 (LS180 CRC cell line; [1]): > 5 µM
IC50 (LS180 CRC cell line; read-out: S/I/R to OSI-906): > 5 µM

IC50 (CaCo2 CRC cell line; Caco-2, 72 hours, 0.05-5 μM, read-out: IC50, growth inhibition by PQIP (SRB)): > 5000 nM
IC50 (SW1417 CRC cell line; [2]): > 5 µM
IC50 (SW48 CRC cell line; [2]): > 5 µM
IC50 (NCI-H508 CRC cell line; [2]): > 5 µM
IC50 (LoVo CRC cell line; [2]): > 5 µM
IC50 (SW1116 CRC cell line; SW 1116, 72 hours, 0.05-5 μM, read-out: IC50, growth inhibition by PQIP (SRB)): > 5 µM
IC50 (Colo205 CRC cell line; Colo205, 72 hours, 0.05-5 μM, read-out: IC50, growth inhibition by PQIP (SRB)): < 500 nM
SMILES: CN1CCN([C@H]2C[C@@H](c3nc(-c4ccc5ccc(-c6ccccc6)nc5c4)c4c(N)nccn43)C2)CC1 [PQIP, cis-3-[3-(4-Methyl-piperazin-1-yl)-cyclobutyl]1-(2-phenyl-quinolin-7-yl)-imidazo[1,5-a]pyrazin-8-ylamine]
IC50 (LS123 CRC cell line; LS-123, 72 hours, 0.05-5 μM, read-out: IC50, growth inhibition by PQIP (SRB)): > 5 µM
IC50 (T84 CRC cell line; [2]): > 5 µM
IC50 (LS1034 CRC cell line; LS-1034, 72 hours, 0.05-5 μM, read-out: IC50, growth inhibition by PQIP (SRB)): > 5000 nM
IC50 (LS180 CRC cell line; [2]): > 5 µM
